ChEMBL document CHEMBL5465560, “Selectivity Literature for EUbOPEN Chemogenomic Library” (2024)

What was measured:
[1] = biological target: Receptor-type tyrosine-protein kinase FLT3 (Homo sapiens) (UniProt P36888); settings: at 10 µM
[2] = system: Tyrosine-protein kinase ABL1 (Homo sapiens), P00519 [E255K]; settings: at 10 µM
[3] = biological target: Serine/threonine-protein kinase ICK (Homo sapiens, UniProt Q9UPZ9); experiment: Selectivity interaction (Kinase panel (Invitrogen, enzymatic assay)) EUB0000162b ICK
[4] = biological target: Protein-tyrosine kinase 6 (Homo sapiens, UniProt Q13882); experiment: Selectivity interaction (KinomeScan (DiscoverX)) EUB0000655a PTK6; settings: at 10 µM
Chain of Protein-tyrosine kinase 6 (Q13882 whole entry, looked up): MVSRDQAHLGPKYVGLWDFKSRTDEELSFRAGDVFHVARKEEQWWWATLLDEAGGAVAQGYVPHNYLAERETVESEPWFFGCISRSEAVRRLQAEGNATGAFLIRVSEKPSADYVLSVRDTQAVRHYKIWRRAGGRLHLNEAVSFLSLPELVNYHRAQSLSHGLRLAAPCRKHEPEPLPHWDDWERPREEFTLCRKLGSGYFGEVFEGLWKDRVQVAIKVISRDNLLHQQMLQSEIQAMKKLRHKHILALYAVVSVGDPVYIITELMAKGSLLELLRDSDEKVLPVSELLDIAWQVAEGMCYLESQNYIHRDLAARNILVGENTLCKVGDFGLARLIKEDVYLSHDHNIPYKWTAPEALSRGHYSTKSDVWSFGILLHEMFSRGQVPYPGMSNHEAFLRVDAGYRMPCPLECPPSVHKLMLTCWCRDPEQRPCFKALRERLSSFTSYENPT

[5] = biological target: Ribosomal protein S6 kinase beta-1 (Homo sapiens, UniProt P23443); experiment: Selectivity interaction (Kinase panel (KiNativ target engagement assay in Jurkat cells)) EUB0001635a RPS6KB1; format: cell-based; settings: at 1 µM
Chain of Ribosomal protein S6 kinase beta-1 (P23443 whole entry, looked up): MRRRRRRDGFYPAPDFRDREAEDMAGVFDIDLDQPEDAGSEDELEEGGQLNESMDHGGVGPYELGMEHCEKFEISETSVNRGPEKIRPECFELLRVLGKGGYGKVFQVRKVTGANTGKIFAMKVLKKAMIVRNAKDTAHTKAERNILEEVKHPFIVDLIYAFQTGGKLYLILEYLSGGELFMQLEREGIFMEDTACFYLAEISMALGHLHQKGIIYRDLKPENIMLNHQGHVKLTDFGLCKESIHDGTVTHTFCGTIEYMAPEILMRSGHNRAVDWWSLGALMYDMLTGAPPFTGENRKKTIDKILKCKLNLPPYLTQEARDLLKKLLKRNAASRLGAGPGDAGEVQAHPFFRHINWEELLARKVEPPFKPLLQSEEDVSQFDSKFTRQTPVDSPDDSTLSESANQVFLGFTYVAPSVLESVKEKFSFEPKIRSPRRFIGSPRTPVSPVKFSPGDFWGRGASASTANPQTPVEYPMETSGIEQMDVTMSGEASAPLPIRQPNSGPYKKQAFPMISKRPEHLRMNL

[6] = biological target: Serine/threonine-protein kinase PAK 1 (Homo sapiens) (UniProt Q13153); experiment: Selectivity interaction (KinomeScan (DiscoverX)) EUB0000666a PAK1; settings: at 10 µM
Chain of Serine/threonine-protein kinase PAK 1 (Homo sapiens) (Q13153 whole entry): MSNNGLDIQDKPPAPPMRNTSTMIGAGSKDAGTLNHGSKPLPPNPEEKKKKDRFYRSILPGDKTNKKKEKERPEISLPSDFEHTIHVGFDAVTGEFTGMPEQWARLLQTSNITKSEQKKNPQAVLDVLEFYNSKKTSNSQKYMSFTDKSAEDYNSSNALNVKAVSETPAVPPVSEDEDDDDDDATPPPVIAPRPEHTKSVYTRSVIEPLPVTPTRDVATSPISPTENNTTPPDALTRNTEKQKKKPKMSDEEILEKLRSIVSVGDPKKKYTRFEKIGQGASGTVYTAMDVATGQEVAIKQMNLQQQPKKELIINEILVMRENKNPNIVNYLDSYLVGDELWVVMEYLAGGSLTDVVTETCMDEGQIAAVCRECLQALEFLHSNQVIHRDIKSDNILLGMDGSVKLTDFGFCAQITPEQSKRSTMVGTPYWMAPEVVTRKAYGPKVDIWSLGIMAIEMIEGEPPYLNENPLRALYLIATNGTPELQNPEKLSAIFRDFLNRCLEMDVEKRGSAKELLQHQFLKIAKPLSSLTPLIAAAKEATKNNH

[7] = system: Proto-oncogene tyrosine-protein kinase receptor Ret (Homo sapiens), P07949 [V804M]; settings: at 10 µM
[8] = biological target: Calcium/calmodulin-dependent protein kinase type II subunit delta (Homo sapiens) (UniProt Q13557); experiment: Selectivity interaction (ActivX KiNativ screen (kinase selectivity in THP-1 cell lysates)) EUB0000639a CAMK2D; format: subcellular; settings: lysate, at 5 µM
Chain of Calcium/calmodulin-dependent protein kinase type II subunit delta (Homo sapiens) (Q13557 whole entry): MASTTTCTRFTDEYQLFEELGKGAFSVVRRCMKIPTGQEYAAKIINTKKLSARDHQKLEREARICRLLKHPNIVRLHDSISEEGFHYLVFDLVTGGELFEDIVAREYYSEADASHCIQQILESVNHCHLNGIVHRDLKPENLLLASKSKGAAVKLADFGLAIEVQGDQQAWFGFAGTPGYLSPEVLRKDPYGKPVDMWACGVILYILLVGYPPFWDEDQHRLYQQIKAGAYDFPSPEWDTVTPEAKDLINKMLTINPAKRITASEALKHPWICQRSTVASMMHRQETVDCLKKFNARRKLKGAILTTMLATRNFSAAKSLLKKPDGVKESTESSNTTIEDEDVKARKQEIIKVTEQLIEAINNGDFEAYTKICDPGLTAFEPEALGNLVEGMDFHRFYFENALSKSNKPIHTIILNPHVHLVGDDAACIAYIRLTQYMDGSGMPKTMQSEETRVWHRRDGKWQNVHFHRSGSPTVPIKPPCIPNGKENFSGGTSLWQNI

[9] = biological target: Ephrin type-A receptor 4 (Homo sapiens, UniProt P54764); experiment: Selectivity interaction (Kinase panel (Invitrogen)) EUB0000639a EPHA4; settings: at 200 nM
Chain of Ephrin type-A receptor 4 (P54764 whole entry): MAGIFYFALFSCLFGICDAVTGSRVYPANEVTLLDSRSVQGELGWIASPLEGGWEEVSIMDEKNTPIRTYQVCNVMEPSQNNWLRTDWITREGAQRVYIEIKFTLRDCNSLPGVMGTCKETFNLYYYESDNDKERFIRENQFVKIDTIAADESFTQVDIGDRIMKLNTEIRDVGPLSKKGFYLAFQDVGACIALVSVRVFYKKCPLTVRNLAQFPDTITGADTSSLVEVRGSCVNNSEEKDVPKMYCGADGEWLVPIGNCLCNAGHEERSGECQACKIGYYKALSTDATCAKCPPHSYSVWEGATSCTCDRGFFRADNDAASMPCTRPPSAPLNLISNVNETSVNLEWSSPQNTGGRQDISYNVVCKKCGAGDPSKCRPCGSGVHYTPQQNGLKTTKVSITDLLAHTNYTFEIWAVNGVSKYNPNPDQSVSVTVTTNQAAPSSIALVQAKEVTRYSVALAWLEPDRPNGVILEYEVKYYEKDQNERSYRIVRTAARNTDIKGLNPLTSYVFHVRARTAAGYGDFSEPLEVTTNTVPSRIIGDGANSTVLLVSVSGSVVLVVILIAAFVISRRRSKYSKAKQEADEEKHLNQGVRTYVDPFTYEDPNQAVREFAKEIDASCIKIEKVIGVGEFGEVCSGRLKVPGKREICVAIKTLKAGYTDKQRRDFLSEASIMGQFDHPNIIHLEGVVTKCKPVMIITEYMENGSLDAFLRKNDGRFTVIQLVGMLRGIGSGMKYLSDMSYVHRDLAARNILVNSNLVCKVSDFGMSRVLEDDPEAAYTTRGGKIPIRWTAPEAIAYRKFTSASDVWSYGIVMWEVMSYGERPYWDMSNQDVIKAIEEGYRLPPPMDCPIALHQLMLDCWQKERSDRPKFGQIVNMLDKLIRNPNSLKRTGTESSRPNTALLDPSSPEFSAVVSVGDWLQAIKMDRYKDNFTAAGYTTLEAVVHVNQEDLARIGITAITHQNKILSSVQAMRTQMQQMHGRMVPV

[10] = biological target: Serine/threonine-protein kinase PAK 1 (Homo sapiens) (UniProt Q13153); experiment: Selectivity interaction (KinomeScan (DiscoverX)) EUB0000607a PAK1; settings: at 10 µM
[11] = biological target: Proto-oncogene tyrosine-protein kinase Src (Homo sapiens, UniProt P12931); experiment: Selectivity interaction (KinomeScan (DiscoverX)) EUB0000607a SRC; settings: at 10 µM
[12] = biological target: T1, Dual specificity mitogen-activated protein kinase kinase 7 (Homo sapiens) (UniProt O14733); experiment: Selectivity interaction (KinomeScan (DiscoverX)) EUB0001049a MAP2K7; settings: at 1 µM
T1 sequence (whole entry): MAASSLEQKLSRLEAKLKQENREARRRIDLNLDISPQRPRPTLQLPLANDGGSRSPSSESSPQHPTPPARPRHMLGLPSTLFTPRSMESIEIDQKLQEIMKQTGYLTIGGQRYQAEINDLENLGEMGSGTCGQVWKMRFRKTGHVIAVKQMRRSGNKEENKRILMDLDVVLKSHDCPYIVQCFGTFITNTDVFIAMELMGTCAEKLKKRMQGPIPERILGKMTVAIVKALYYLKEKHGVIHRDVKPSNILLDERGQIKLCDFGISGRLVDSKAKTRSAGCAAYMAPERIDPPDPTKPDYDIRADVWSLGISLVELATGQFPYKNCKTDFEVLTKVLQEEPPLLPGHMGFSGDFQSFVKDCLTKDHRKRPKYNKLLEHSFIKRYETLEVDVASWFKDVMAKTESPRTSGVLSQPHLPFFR

[13] = biological target: Ribosomal protein S6 kinase alpha-2 (Homo sapiens) (UniProt Q15349); experiment: Selectivity interaction (KinomeScan (DiscoverX)) EUB0001049a RPS6KA2; settings: at 1 µM
[14] = biological target: Dual specificity mitogen-activated protein kinase kinase 2 (Homo sapiens) (UniProt P36507); experiment: Selectivity interaction (KinomeScan (DiscoverX)) EUB0000695a MAP2K2; settings: at 100 nM
Chain of Dual specificity mitogen-activated protein kinase kinase 2 (Homo sapiens) (P36507 whole entry): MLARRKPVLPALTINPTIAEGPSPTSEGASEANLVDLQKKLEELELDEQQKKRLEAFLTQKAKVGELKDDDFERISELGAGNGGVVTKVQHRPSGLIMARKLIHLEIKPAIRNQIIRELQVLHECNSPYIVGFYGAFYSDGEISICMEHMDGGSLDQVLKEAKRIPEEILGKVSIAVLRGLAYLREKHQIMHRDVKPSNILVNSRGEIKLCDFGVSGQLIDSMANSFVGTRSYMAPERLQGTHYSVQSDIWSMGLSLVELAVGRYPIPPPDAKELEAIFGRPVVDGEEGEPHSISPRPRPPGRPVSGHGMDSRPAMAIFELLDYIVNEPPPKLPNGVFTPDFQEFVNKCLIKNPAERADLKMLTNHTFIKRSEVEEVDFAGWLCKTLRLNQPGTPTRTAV

[15] = biological target: Cyclin-dependent kinase 5 (Homo sapiens, UniProt Q00535); experiment: Selectivity interaction (KinomeScan (DiscoverX)) EUB0000618a CDK5; settings: at 10 µM
[16] = biological target: T2, Peripheral plasma membrane protein CASK (Homo sapiens) (UniProt O14936); experiment: Selectivity interaction (KinomeScan (DiscoverX)) EUB0000618a CASK; settings: at 10 µM
T2 sequence (whole entry): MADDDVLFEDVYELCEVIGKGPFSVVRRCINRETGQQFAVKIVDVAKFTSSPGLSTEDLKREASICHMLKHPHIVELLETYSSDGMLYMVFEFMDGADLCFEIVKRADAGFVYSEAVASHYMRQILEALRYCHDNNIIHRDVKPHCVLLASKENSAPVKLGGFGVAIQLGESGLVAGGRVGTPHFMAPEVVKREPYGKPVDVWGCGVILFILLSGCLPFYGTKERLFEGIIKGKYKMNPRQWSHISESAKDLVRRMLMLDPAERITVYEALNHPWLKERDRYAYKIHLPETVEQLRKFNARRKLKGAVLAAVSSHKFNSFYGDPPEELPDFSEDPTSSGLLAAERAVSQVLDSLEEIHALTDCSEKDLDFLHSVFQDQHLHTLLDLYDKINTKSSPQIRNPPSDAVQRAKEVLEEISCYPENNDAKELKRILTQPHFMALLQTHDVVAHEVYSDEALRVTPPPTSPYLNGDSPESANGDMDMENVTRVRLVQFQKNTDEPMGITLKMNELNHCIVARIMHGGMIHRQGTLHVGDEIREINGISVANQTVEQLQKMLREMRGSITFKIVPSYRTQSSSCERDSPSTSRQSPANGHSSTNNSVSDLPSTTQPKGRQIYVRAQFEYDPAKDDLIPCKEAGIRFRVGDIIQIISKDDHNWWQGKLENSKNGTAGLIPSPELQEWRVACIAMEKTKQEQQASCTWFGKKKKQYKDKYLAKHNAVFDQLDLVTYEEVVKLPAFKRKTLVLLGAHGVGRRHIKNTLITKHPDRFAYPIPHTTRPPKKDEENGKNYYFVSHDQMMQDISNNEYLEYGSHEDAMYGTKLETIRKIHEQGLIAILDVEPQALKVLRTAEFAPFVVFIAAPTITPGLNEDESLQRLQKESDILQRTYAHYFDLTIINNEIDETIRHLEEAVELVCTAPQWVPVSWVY

[17] = biological target: Serine/threonine-protein kinase WNK3 (Homo sapiens) (UniProt Q9BYP7); experiment: Selectivity interaction (ActivX KiNativ screen (ex vivo kinase selectivity in human PBMCs)) EUB0001619a WNK3; format: cell-based; settings: PBMC, at 1 µM
[18] = biological target: Phosphatidylinositol 4-kinase beta (Homo sapiens, UniProt Q9UBF8); experiment: Selectivity interaction (KinomeScan (DiscoverX)) EUB0001619a PI4KB; settings: at 1 µM
Chain of Phosphatidylinositol 4-kinase beta (Q9UBF8 2-816 limits assumed): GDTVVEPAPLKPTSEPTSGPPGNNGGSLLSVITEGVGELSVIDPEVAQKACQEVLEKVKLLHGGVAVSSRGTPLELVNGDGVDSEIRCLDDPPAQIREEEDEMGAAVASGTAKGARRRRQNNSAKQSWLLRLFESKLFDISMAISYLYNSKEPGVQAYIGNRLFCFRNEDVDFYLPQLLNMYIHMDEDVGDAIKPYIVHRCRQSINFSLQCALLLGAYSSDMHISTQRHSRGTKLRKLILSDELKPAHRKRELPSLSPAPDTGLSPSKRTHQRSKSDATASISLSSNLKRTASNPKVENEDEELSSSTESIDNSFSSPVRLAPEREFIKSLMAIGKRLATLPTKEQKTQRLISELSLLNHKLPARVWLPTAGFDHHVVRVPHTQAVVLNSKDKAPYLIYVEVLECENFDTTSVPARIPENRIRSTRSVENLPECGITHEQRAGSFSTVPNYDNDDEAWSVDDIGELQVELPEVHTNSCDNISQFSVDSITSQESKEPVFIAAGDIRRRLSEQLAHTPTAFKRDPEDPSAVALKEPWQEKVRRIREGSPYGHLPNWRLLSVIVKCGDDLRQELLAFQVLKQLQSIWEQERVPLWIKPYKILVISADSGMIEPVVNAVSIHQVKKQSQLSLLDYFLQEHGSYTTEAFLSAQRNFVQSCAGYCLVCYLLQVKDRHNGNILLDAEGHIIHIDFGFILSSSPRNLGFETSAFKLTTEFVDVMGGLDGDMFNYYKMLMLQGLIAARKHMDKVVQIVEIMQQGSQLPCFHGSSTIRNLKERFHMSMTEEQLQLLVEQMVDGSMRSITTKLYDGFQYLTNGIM

[19] = biological target: High affinity nerve growth factor receptor (Homo sapiens, UniProt P04629); experiment: Selectivity interaction (KinomeScan (DiscoverX)) EUB0001619a NTRK1; settings: at 1 µM
Chain of High affinity nerve growth factor receptor (P04629 33-796 limits assumed): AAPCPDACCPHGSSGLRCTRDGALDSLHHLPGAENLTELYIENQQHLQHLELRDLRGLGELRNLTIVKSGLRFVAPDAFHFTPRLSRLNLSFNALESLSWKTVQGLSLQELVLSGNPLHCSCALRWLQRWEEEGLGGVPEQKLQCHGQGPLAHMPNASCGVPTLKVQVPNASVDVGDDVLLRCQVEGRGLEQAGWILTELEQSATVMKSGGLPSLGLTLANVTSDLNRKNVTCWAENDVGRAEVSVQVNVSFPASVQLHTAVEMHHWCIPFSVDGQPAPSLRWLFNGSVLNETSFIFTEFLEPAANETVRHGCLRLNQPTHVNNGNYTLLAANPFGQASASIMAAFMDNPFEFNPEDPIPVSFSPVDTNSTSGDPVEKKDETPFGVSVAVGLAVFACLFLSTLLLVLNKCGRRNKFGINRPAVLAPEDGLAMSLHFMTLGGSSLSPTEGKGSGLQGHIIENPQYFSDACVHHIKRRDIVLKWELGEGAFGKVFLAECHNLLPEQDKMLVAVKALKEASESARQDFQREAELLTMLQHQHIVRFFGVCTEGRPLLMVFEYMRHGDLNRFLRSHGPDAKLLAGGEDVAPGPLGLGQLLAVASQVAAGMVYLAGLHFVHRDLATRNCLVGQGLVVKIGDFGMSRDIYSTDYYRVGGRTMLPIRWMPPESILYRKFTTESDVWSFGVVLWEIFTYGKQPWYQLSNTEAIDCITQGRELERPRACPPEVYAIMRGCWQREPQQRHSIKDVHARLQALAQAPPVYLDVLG

CCN(CC)CCCCNc1ncc2cc(-c3cc(OC)cc(OC)c3)c(NC(=O)NC(C)(C)C)nc2n1
% of control [1]: 100%
% of control [2]: 100%

CN(C)C(=O)Cn1cc(-c2ccc(-c3cncc4ccccc34)cc2)cn1
IC50 [3]: 2390 nM

CN(C)CCOc1ccc(-c2nc(-c3ccncc3)c(-c3ccc4c(c3)CC/C4=N\O)[nH]2)cc1
% of control [4]: 82%

C=CC(=O)Nc1ccc(C(=O)Nc2[nH]nc3c2CN(C(=O)N[C@H](CN(C)C)c2ccccc2)C3(C)C)cc1
% of engagement ([5]; Selectivity number of off-targets 0.0, Selectivity number of targets 233.0, Source Knowledge https://www.sciencedirect.com/science/article/pii/S2451945619300674?via%3Dihub): 7.5%
% of engagement [5]: -9.4%

O=C(NOC[C@H](O)CO)c1ccc(F)c(F)c1Nc1ccc(I)cc1F
% of control [6]: 100%

Cc1cc([C@@H](C)Nc2ccccc2C(=O)O)c2nc(N3CCOCC3)cc(=O)n2c1 [AZD-6482]
% of control [7]: 100%

CC[C@@H]1[C@H](F)C(=O)N[C@@H]1COc1nccc2cc(C(N)=O)c(OC)cc12 [ZIMLOVISERTIB]
% of inhibition [8]: 56.2%
% of inhibition [9]: 6.54%

CNC(=O)Nc1ccc(-c2nc(N3CC4CCC(C3)O4)c3cnn(C4CCC5(CC4)OCCO5)c3n2)cc1
% of control [10]: 100%
% of control [11]: 75%

COc1cc(Nc2nc(C)cc(-c3cnn4nc(OC)ccc34)n2)cc(C(F)(F)F)c1
% of control [12]: 99%
% of control [13]: 93%

Cc1cc(F)c(C(=O)Nc2cccc(-c3nncn3C(C)C)n2)cc1-n1cnc(C2CC2)c1
% of control [14]: 97%

O[C@H]1CC[C@H](Nc2ncc3nc(Nc4c(F)cc(F)cc4F)n([C@H]4CCOC4)c3n2)CC1
% of control [15]: 100%
% of control [16]: 95%

N#Cc1cccc(-c2c[nH]c3ncnc(N4CCOCC4)c23)c1
% of inhibition [17]: -6%
% of control [18]: 71%
% of control [19]: 88%
